According to publication PMC5515971, “Utility of spherical human liver microtissues for prediction of clinical drug-induced liver injury” (Archives of Toxicology, 2017):
Like-named read-outs stand apart in the source and are kept apart here.

Columns and labels:
[1] = tested on: 3D human liver microtissues (hLiMT); experiment: Cytotoxicity (cellular ATP, CellTiter-Glo 2.0) in 3D human liver microtissues, 14 day repeat-dose treatment; conditions: Homo sapiens, Hepatocyte, 336 h, read-out: Geomean IC50 [µM]
[2] = cited from earlier work
[3] = tested on: primary human hepatocytes (PHH); experiment: Cytotoxicity (cellular ATP, CellTiter-Glo) in 2D plated primary human hepatocytes, 48 h treatment; type: cell-based; conditions: for IC50: Hepatocyte, read-out: Geomean IC50;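 as to all read-outs here: 384-well plates, luminescence read-out, normalized to vehicle wells with 1% DMSO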
[4] = ref Chen et al 2016 / Chen et al 2011; cited from earlier work
[5] = cited from earlier work; for DILI category: clinical, from literature and product labels, ref Garside et al. 2014
[6] = human Cmax total, used for IC50/Cmax
[7] = human total plasma Cmax, ref literature values
[8] = 2D primary human hepatocytes (lot IZT), 48 h treatment, total cellular ATP content
[9] = Table 1, ref Garside et al. (2014)
[10] = clinical DILI severity category, 1-5

SMILES | IC50 [1] | Cmax [2, 6] | Cmax [2, 7] | IC50 [3, 8] | further results
CCCC(CCC)C(=O)O [Valproic acid] | > 100 µM | 693 µM | 693 µM | > 100 µM | 
CNCCC(Oc1ccc(C(F)(F)F)cc1)c1ccccc1 (centres unmarked) [Fluoxetine] |  | 0.05 µM | 0.05 µM |  | 
C#C[C@]1(O)CC[C@H]2[C@@H]3CCC4=Cc5oncc5C[C@]4(C)[C@H]3CC[C@@]21C [Danazol] | > 100 µM |  | 207 µM | 108 µM | 
N[C@@H]1CON=C1O [Cycloserine] | 7460 µM | 333 µM | 333 µM | > 10 µM | 
CN1C(C(=O)Nc2nccs2)=C(O)c2ccccc2S1(=O)=O [Sudoxicam] | > 100 µM | 77 µM | 77.1 µM | > 100 µM | 
CS(=O)(=O)Nc1ccc([N+](=O)[O-])cc1Oc1ccccc1 [Nimesulide] | 60.5 µM | 21.1 µM | 21.1 µM | 436 µM | 
Clc1ccccc1CN1CCc2sccc2C1 [Ticlopidine] |  | 8.1 µM | 8.07 µM |  | 
O=P1(N(CCCl)CCCl)NCCCO1 (centres unmarked) [Cyclophosphamide] | > 2000 µM |  |  |  | Cmax ([2]; human, in vivo): 143 µM; IC50 ([3]; Homo sapiens, 48 h): > 2000 µM
OC(CCN1CCCC1)(c1ccccc1)C1CCCCC1 (centres unmarked) [Procyclidine] | 117 µM | 2.19 µM | 2.19 µM | 97.9 µM | classification at 50× MOS threshold ([3]; PHH 48 h): false positive
Cc1ccc(N(CC2=NCCN2)c2cccc(O)c2)cc1 [Phentolamine] | > 100 µM | 0.09 µM | 0.09 µM | > 100 µM | 
CNCCCN1c2ccccc2CCc2ccccc21 [Desipramine] |  | 1.88 µM | 1.88 µM |  | FDA DILI Classification DILI severity score [4]: 3; LTKB DILI classification [4]: Ambiguous DILI concern; DILI severity category [5, 9]: 3: Low clinical DILI concern (N = 23); DILI severity category [5, 10]: 3. Low Clinical DILI Concern; DILI category [5]: 3. Low Clinical DILI Concern
CN(C)C(=O)Oc1ccc[n+](C)c1 [Pyridostigmine] | > 100 µM | 1.1 µM | 1.1 µM | > 200 µM | 
Nc1cc(N2CCCCC2)nc(N)[n+]1[O-] [Minoxidil] | > 100 µM | 1.2 µM | 1.19 µM | > 100 µM | 
Cc1onc(-c2c(F)cccc2Cl)c1C(=O)N[C@@H]1C(=O)N2[C@@H]1SC(C)(C)[C@@H]2C(=O)O [Flucloxacillin] | 12200 µM | 66.1 µM | 66.1 µM | 4670 µM | DILI severity category [5, 9]: 2: High clinical DILI concern (N = 23); DILI severity category [5, 10]: 2. High Clinical DILI Concern; DILI category [5]: 2. High Clinical DILI Concern
CN(CCOc1ccc(CC2SC(=O)NC2=O)cc1)c1ccccn1 (centres unmarked) [Rosiglitazone] |  | 1 µM | 1.04 µM | > 100 µM | FDA DILI Classification DILI severity score [4]: 3; LTKB DILI classification [4]: less DILI concern; DILI severity category [5, 9]: 2: High clinical DILI concern (N = 23); DILI severity category [5, 10]: 2. High Clinical DILI Concern; DILI category [5]: 2. High Clinical DILI Concern
CO[C@@]12[C@H](COC(N)=O)C3=C(C(=O)C(C)=C(N)C3=O)N1C[C@@H]1N[C@@H]12 [Mitomycin C] | < 0.8 µM | 7.1 µM | 7.1 µM |  | IC50 ([3]; Homo sapiens, 48 h): 14.8 µM
CCN1C(=O)NC(c2ccccc2)C1=O (centres unmarked) [Ethotion] | > 150 µM | 367 µM | 367 µM | > 1250 µM | 
CN(C)CCCN1c2ccccc2CCc2ccccc21 [Imipramine] |  | 0.54 µM | 0.53 µM |  | 
CN1CCN(C2=Nc3cc(Cl)ccc3Nc3ccccc32)CC1 [Clozapine] |  | 2.4 µM | 2.45 µM |  | 
